Experimental data published in patent publication US20220395553A1, “CXCR4 ANTAGONIST PEPTIDES” (COHBAR, INC., priority 2019, published 2022).
Peptide text beside a SMILES is read from it.

Assays:
[1] = target: T1, human CXCR4 (Homo sapiens, UniProt P61073); assay: CXCR4/CXCL12 binding, HTRF format, single concentration (Example 23); design: host or cells: HEK293 (Tag-lite CXCR4 cells, frozen aliquots, transient expression); settings: 15 nM CXCR4R fluorescent probe, 3 hours, HEK293 Tag-lite CXCR4 cells
In short: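 Tag-lite CXCR4 cells were exposed to peptide at 400 nM final with 15 nM (EC80) fluorescent CXCR4 probe for 3 h at room temperature. HTRF was read, and the 665/620 nm ratio ×10,000 measured probe bound to terbium-labelled receptor.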

[2] = target: T1, human CXCR4; assay: Inhibition of β-Arrestin recruitment, single concentration (Example 18); assay type: cell-based; design: host or cells: C2C12 (mouse myoblast) CXCR4 β-Arrestin PathHunter cell line; settings: peptide 1 μM, […] CXCL12 (EC80), C2C12 CXCR4 β-Arrestin cells
Procedure: Peptides were initially prepared as 1 mM stock in DMSO and tested at a final concentration of 1 μM (0.1% DMSO). C2C12 CXCR4 β-Arrestin cells were seeded onto 384-well plates in standard medium. After overnight culture, the medium was replaced with buffer containing 1 μM peptide and pre-incubated for 30 min at 37° C. […] At the end of the 90 min incubation period, β-Arrestin recruitment in response to various treatments was quantified using a chemiluminescent complementation reporter assay to measure association of tagged human […] (ProLink tag) and tagged β-Arrestin (Enzyme Acceptor tag).

T1 sequence (P61073 whole entry): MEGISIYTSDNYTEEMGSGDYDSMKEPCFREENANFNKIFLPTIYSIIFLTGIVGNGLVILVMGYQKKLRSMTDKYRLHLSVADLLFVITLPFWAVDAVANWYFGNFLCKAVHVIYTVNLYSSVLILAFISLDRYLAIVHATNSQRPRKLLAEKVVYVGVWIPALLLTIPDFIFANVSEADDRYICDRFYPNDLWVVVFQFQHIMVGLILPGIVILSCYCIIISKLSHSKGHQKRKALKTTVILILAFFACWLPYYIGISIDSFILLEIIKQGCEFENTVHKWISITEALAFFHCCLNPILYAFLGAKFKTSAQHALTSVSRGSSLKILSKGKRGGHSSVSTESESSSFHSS

Percent Inhibition of CXCR4/CXCL12 Binding (400 nM peptide) [1] [%]	Percent Inhibition of CXCL12 Mediated CXCR4 Activity [2] [%]	Compound
88		CC(C)C[C@H](NC(=O)[C@H](CO)NC(=O)[C@H](CO)NC(=O)[C@H](CCCNC(=N)N)NC(=O)[C@@H](NC(=O)[C@H](CO)NC(=O)[C@H](Cc1c[nH]cn1)NC(=O)[C@H](Cc1c[nH]cn1)NC(=O)[C@H](Cc1ccc(O)cc1)NC(=O)[C@H](CCCNC(=N)N)NC(=O)[C@H](CCC(=O)O)NC(=O)[C@@H](N)CC(C)C)C(C)C)C(=O)N[C@@H](CCCNC(=N)N)C(=O)N1CCC[C@H]1C(=O)N[C@@H](Cc1ccc(O)cc1)C(=O)N[C@H](C(=O)N[C@@H](CCCCN)C(=O)O)[C@@H](C)O [compound 4] (H-LERYHHSVRSSLRPYTK-OH; N-terminus and C-terminus assumed)
	113.8	CC(C)C[C@H](NC(=O)[C@H](CO)NC(=O)[C@H](CO)NC(=O)[C@H](CCCNC(=N)N)NC(=O)[C@@H](NC(=O)[C@H](CO)NC(=O)[C@H](Cc1c[nH]cn1)NC(=O)[C@H](Cc1c[nH]cn1)NC(=O)[C@H](Cc1ccc(O)cc1)NC(=O)[C@H](CCCNC(=N)N)NC(=O)[C@H](CCCNC(=N)N)NC(=O)[C@@H](N)CC(C)C)C(C)C)C(=O)N[C@@H](CCCNC(=N)N)C(=O)N1CCC[C@H]1C(=O)N[C@@H](Cc1ccc(O)cc1)C(=O)N[C@H](C(=O)N[C@@H](CCCCN)C(=O)O)[C@@H](C)O [compound 3] (H-LRRYHHSVRSSLRPYTK-OH; N-terminus and C-terminus assumed)
